IC50 and bioavailability data for 23 molecules are collected here from patent US20180044343A1, “BICYCLIC IMIDAZOLO DERIVATIVE” (Sumitomo Dainippon Pharma Co., Ltd., priority 2015, published 2018).

pIC50: −log10 of the molar value. Some results are limits rather than exact numbers.

Series [1] deals with T1, PDE1C (Homo sapiens, UniProt Q14123). In words: In vitro HTRF PDE1 inhibition assay (PDE1C). It is filed as biochemical. The conditions noted are these: 100 nM cyclic GMP. An excerpt:
(§1) An exemplary procedure for the in vitro Homogenous Time Resolved Fluorescence assay, which can be used to determine the inhibitory action of compounds of the present invention toward PDE1 or its isoforms, follows.
(§2) The HTRF PDE1 assay utilized the HTRF (Homogenous Time Resolved Fluorescence) technology, which is based on the competition between unlabeled cyclic nucleotide and cyclic nucleotide labeled with XL665 for the binding to cyclic nucleotide-specific antibody labeled with cryptate. The HTRF signal is thus inversely proportional to the concentration of cyclic nucleotide being measured. Since phosphodiesterases break down cyclic nucleotides, the HTRF signal was used to determine PDE activity.
(§3) The Cisbio cGMP HTRF assay kit (Cat no: 62GM2PEC) was utilized. Cyclic GMP was diluted to 200 nM in HTRF assay buffer (1 mM CaCl2, 10 mM MgCl2, 10 mM Tris-HCl, 0.1% BSA, pH 7.4). 10 μl of compound or DMSO was diluted in 200 nM cyclic GMP solution and added to wells of a 96 well white plate to give 100 nM cyclic GMP in 1% DMSO final concentration. PDE (1A3, 1B or 1C) was diluted to 2× working concentration in HTRF assay buffer with 2 μg/ml Calmodulin, and 10 μl was added to initiate the reaction. The plate was then incubated for 45 minutes at 27° C. d2-Labelled cyclic GMP and anti-cGMP cryptate were diluted in 50 mM phosphate buffer, 0.8 M KF, 1% Triton X100, 0.2% BSA, pH 7.0. Following incubation 10 μl d2-cGMP, then 10 μl anti cGMP cryptate were added to each well and the plate was incubated for 60 minutes at room temperature. The plate was then read on Perkin Elmer EnVision at 2 different FRET readings ex/em 340 nm/665 nm and 340 nm/615 nm.
(§4) Compounds having an IC50 of <1 μM are denoted as +++. Compounds having an IC50 of 1-10 μM are denoted as ++. Compounds having an IC50 of 10-100 μM are denoted as +.

Series [2] addresses T2, PDE1A3 (Homo sapiens, UniProt P54750). Description: In vitro HTRF PDE1 inhibition assay (PDE1A3). Format: biochemical. The conditions noted are these: PDE1A3, 100 nM cyclic GMP.
Source text: as §1, §2, §3, §4

Series [3] has as its target T1, PDE1C. In words: In vitro SPA PDE1 inhibition assay (PDE1C). Format: biochemical. The following applies: [3H]-cGMP 100 nM. How it is done:
(§5) The commercially available Scintillation Proximity Assay (SPA) system (Perkinelmer) was used for PDE1 inhibition assays. SPA Yttrium Silicate beads preferentially binds to non-cyclic GMP compared to cyclic GMP (cGMP) in the presence of zinc sulphate, which enables to measure the amount of enzyme reaction product ([^3H]-GMP) by scintillation counting.
(§6) For PDE1 inhibition assay, 10 μl of the test compounds in 5% dimethyl sulfoxide diluted in SPA assay buffer (1 mM CaCl2, 10 mM MgSO4, 10 mM Tris-HCl, pH 7.4) were placed in a 96-well white microtiter plate, and 20 μl of [^3H]-cGMP solution (100 nM final concentration, Perkinelmer) in SPA assay buffer was added. Assays were initiated by adding 20 μl of PDE (1A3, 1B or 1C) enzyme solution including calmodulin (final concentration 1 μg/ml). After 30 min incubation at 27° C., the reaction was stopped by the addition of 50 μl of a suspension of 10 mg/ml SPA beads in 18 mM ZnSO4. The microtiter plates were settled for 60 min, and then were measured in a TopCount NXT scintillation counter (PerkinElmer). IC50 values were determined from sigmoidal curves by plotting the percentage of PDE activity versus log compound concentration. IC50 was defined as the concentration of the test compounds required to inhibit the cyclic nucleotide hydrolyzing activities of tested PDEs by 50%.

For series [4], the target named is T3, PDE1B (Homo sapiens, UniProt Q01064). In words: In vitro SPA PDE1 inhibition assay (PDE1B). The following applies: [3H]-cGMP 100 nM. It is filed as biochemical. As for the experimental part:
as §5, §6

Series [5] addresses T2, PDE1A3. In words: In vitro SPA PDE1 inhibition assay (PDE1A3). It is filed as biochemical. The following applies: PDE1A3, [3H]-cGMP 100 nM. As for the experimental part:
as §5, §6

Series [6] addresses T3, PDE1B. In words: In vitro HTRF PDE1 inhibition assay (PDE1B). The following applies: in vitro PDE1B HTRF Assay; read-out: IC50. It is filed as biochemical.
Description: The Cisbio cGMP HTRF assay kit (Cat no: 62GM2PEC) was utilized. Cyclic GMP was diluted to 200 nM in HTRF assay buffer (1 mM CaCl2, 10 mM MgCl2, 10 mM Tris-HCl, 0.1% BSA, pH 7.4). […] PDE (1A3, 1B or 1C) was diluted to 2× working concentration in HTRF assay buffer with 2 μg/ml Calmodulin, and 10 μl was added to initiate the reaction. The plate was then incubated for 45 minutes at 27° C. d2-Labelled cyclic GMP and anti-cGMP cryptate were diluted in 50 mM phosphate buffer, 0.8 M KF, 1% Triton X100, 0.2% BSA, pH 7.0. Following incubation 10 μl d2-cGMP, then 10 μl anti cGMP cryptate were added to each well and the plate was incubated for 60 minutes at room temperature. The plate was then read on Perkin Elmer EnVision at 2 different FRET readings ex/em 340 nm/665 nm and 340 nm/615 nm.
The nature of series [7]: Evaluation of bioavailability, PK test in rats. Format: in vivo. The conditions noted are these: rat; 7 week-old SD rats, intravenous vs oral administration, plasma LC-MS. How it is done: This test can be used to assess pharmacokinetics of the compounds of the present invention. Each compound of the invention was administered to 7 week-old SD rats intravenously with a solution in saline: 0.1N HCl=9:1 or orally with a 0.5% suspension in methyl cellulose, and each blood sample was collected at an appropriate interval as follows:
5, 15, and 30 minutes, and 1, 2, 4, 6, and 24 hours after intravenous administration
15 and 30 minutes, and 1, 2, 4, 6, and 24 hours after oral administration
The plasma was obtained from each blood, and the concentration of each compound in the plasma was measured with an LC-MS to calculate each pharmacokinetic parameter based on the concentration change.

T3 sequence (Q01064 whole entry): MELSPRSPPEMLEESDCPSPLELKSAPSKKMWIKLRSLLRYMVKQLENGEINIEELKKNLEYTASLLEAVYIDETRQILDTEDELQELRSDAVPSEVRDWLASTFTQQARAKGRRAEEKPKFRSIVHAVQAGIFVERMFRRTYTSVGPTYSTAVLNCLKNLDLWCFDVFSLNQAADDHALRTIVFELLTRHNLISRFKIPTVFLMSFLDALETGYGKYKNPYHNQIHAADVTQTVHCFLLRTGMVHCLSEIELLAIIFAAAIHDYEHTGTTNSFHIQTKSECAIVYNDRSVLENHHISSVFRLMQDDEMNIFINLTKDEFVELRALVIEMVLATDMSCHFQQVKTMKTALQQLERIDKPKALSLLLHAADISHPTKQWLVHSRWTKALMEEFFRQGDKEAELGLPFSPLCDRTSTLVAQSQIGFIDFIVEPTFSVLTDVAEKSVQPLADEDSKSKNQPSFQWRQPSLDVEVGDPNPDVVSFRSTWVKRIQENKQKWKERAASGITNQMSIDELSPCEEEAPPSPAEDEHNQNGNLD

With `CCn1c(OC[C@H]2CC[C@H](OC)CC2)nn2c(C3CCOCC3)ncc2c1=O` [Example 91], the IC50 at PDE1C [1] is under 1 µM; against PDE1A3 [2] it was under 1 µM; against PDE1C [3], 0.199 µM; at PDE1B [4] it was 0.028 µM; at PDE1A3 [5] it was 0.074 µM. The pIC50 at PDE1B [6] is over 6.00.

Consider `COc1nn2c(C3CCOCC3)ncc2c(=O)n1C[C@H]1CC[C@@H](OC)CC1` [Example 101], for which the IC50 against PDE1C [1] was under 1 µM; against PDE1A3 [2] it was under 1 µM; against PDE1C [3], 0.192 µM; on PDE1B [4], 0.096 µM; at PDE1A3 [5], 0.121 µM. The pIC50 at PDE1B [6] was over 6.00.

As to `Cn1c(OCc2ccc(F)cc2)nn2c(C3CCOCC3)nc(F)c2c1=O` [Example 116, 5-Fluoro-2-[(4-fluorobenzyl)oxy]-3-methyl-7-(tetrahydro-2H-pyran-4-yl)imidazo[5,1-f][1,2,4]triazin-4(3H)-one], the IC50 on PDE1C [1] was under 1 µM; on PDE1A3 [2], under 1 µM; at PDE1C [3], 0.771 µM; against PDE1B [4], 0.084 µM; at PDE1A3 [5], 0.207 µM. The pIC50 at PDE1B [6] is over 6.00.

For `CNc1nn2c(C3CCOCC3)ncc2c(=O)n1Cc1ccccc1` [Example 200], the IC50 was under 1 µM on PDE1C [1]; under 1 µM on PDE1A3 [2]; 0.024 µM on PDE1C [3]; 0.109 µM at PDE1B [4]; 0.133 µM on PDE1A3 [5]. On PDE1B [6], the pIC50 was over 6.00.

As to `Cc1nn2c(C3CCOCC3)ncc2c(=O)n1Cc1ccccc1` [Example 238, 3-Benzyl-2-methyl-7-(tetrahydro-2H-pyran-4-yl)imidazo[5,1-f][1,2,4]triazin-4(3H)-one], the IC50 at PDE1C [1] was under 1 µM; against PDE1A3 [2] it was under 1 µM; against PDE1C [3] it was 0.027 µM; against PDE1B [4], 0.145 µM; at PDE1A3 [5] it was 0.137 µM. The pIC50 at PDE1B [6] was over 6.00.

With `CCc1nn2c(C3CCOCC3)ncc2c(=O)n1CC1CCC(F)(F)CC1` [Example 239, 3-[(4,4-Difluorocyclohexyl)methyl]-2-ethyl-7-(tetrahydro-2H-pyran-4-yl)imidazo[5,1-f][1,2,4]triazin-4(3H)-one], the IC50 at PDE1C [1] is under 1 µM; at PDE1A3 [2], under 1 µM; against PDE1C [3] it was 0.125 µM; against PDE1B [4], 0.079 µM; against PDE1A3 [5], 0.065 µM. The pIC50 on PDE1B [6] is over 6.00.

On to `CCO[C@H]1CC[C@H](COc2nn3c(C4CCOCC4)ncc3c(=O)n2CC)CC1` [Example 249], for which the IC50 against PDE1C [1] and against PDE1A3 [2] was under 1 µM throughout. On PDE1B [6], the pIC50 is over 6.00.

On to `CCn1c(OC[C@H]2CC[C@H](C(F)(F)F)CC2)nn2c(C3CCOCC3)ncc2c1=O` [Example 251], for which the IC50 against PDE1C [1] and against PDE1A3 [2] was under 1 µM throughout. Also, on PDE1B [6], the pIC50 is over 6.00.

On to `COc1nn2c(C3CCOCC3)ncc2c(=O)n1C[C@H]1CC[C@H](OC)CC1` [Example 253], for which the IC50 on PDE1C [1] and against PDE1A3 [2] was under 1 µM in each case. Besides, the pIC50 on PDE1B [6] is over 6.00.

Take `Cn1c(OC2CCCCC2)nn2c(C3CCOCC3)ncc2c1=O` [Example 255, 2-(cyclohexyloxy)-3-methyl-7-(tetrahydro-2H-pyran-4-yl)imidazo[5,1-f][1,2,4]triazin-4(3H)-one]: the IC50 on PDE1C [1] and at PDE1A3 [2] was under 1 µM in each case. Also, the pIC50 on PDE1B [6] was over 6.00.

Turning to `CCOC[C@H]1CC[C@H](Oc2nn3c(C4CCOCC4)ncc3c(=O)n2C)CC1` [Example 256, 2-{[trans-4-(ethoxymethyl)cyclohexyl]oxy}-3-methyl-7-(tetrahydro-2H-pyran-4-yl)-imidazo-[5,1-][1,2,4]triazin-4(3H)-one], the IC50 against PDE1C [1] and against PDE1A3 [2] was under 1 µM each time. Further, in series [7], the bioavailability came to 14.3%. Also, on PDE1B [6], the pIC50 is over 6.00.

In the case of `CCOC[C@H]1CC[C@H](Oc2nn3c(C4CCOCC4)ncc3c(=O)n2CC)CC1` [Example 258], the IC50 at PDE1C [1] and against PDE1A3 [2] was under 1 µM each time. In addition, the pIC50 on PDE1B [6] was over 6.00.

On to `CCn1c(OCCC2(C(F)(F)F)CC2)nn2c(C3CCOCC3)ncc2c1=O` [Example 283], for which the IC50 at PDE1C [1] and at PDE1A3 [2] was under 1 µM throughout. The negative logarithm of the IC50 (pIC50) on PDE1B [6] was over 6.00.

Take `Cn1c(OC2CCC(C)(C)CC2)nn2c(C3CCOCC3)ncc2c1=O` [Example 302]: the IC50 on PDE1C [1] and against PDE1A3 [2] was under 1 µM throughout. On PDE1B [6], the pIC50 is over 6.00.

Consider `CCn1c(OC2CCC(F)(F)CC2)nn2c(C3CCOCC3)ncc2c1=O` [Example 304, 2-[(4,4-difluorocyclohexyl)oxy]-3-ethyl-7-(tetrahydro-2H-pyran-4-yl)imidazo[5,1-f][1,2,4]triazin-4(3H)-one], for which the IC50 at PDE1C [1] and against PDE1A3 [2] was under 1 µM in each case. The pIC50 at PDE1B [6] was over 6.00.

For the molecule `CCn1c(O[C@H]2CC[C@H](C(F)(F)F)CC2)nn2c(C3CCOCC3)ncc2c1=O` [Example 306], the IC50 on PDE1C [1] and on PDE1A3 [2] was under 1 µM each time. Besides, at PDE1B [6], the pIC50 was over 6.00.

Consider `CO[C@H]1CC[C@H](Oc2nn3c(C4CCOCC4)ncc3c(=O)n2C)CC1` [Example 309], for which the IC50 is 1 to 10 µM on PDE1C [1] and under 1 µM at PDE1A3 [2]. Also, on PDE1B [6], the pIC50 was over 6.00.

For `CCn1c(O[C@H]2CC[C@H](OC)CC2)nn2c(C3CCOCC3)ncc2c1=O` [Example 310], the IC50 on PDE1C [1] and against PDE1A3 [2] was under 1 µM throughout. For the same molecule, the pIC50 on PDE1B [6] is over 6.00.

As to `CO[C@H]1CC[C@@H](Oc2nn3c(C4CCOCC4)ncc3c(=O)n2C)CC1` [Example 312], the IC50 on PDE1C [1] and at PDE1A3 [2] was under 1 µM throughout. For the same molecule, at PDE1B [6], the pIC50 was over 6.00.

For the molecule `CCn1c(O[C@H]2CC[C@@H](OC)CC2)nn2c(C3CCOCC3)ncc2c1=O` [Example 313], the IC50 against PDE1C [1] and against PDE1A3 [2] was under 1 µM throughout. Moreover, on PDE1B [6], the pIC50 is over 6.00.

With `CCO[C@H]1CC[C@H](Oc2nn3c(C4CCOCC4)ncc3c(=O)n2CC)CC1` [Example 315], the IC50 against PDE1C [1] and on PDE1A3 [2] was under 1 µM in each case. The negative logarithm of the IC50 (pIC50) on PDE1B [6] was over 6.00.

As for `CCn1c(O[C@H]2CC[C@H](COC)CC2)nn2c(C3CCOCC3)ncc2c1=O` [Example 317, 3-ethyl-2-{[trans-4-(methoxymethyl)cyclohexyl]oxy}-7-(tetrahydro-2H-pyran-4-yl)-imidazo[5,1-][1,2,4]triazin-4(3H)-one], the IC50 is under 1 µM on PDE1C [1]; under 1 µM against PDE1A3 [2]; 0.194 µM against PDE1C [3]; 0.027 µM against PDE1B [4]; 0.042 µM against PDE1A3 [5]. In addition, the pIC50 on PDE1B [6] is over 6.00.

Take `COC[C@H]1CC[C@@H](Oc2nn3c(C4CCOCC4)ncc3c(=O)n2C)CC1` [Example 318]: the IC50 at PDE1C [1] and at PDE1A3 [2] was under 1 µM each time. The pIC50 on PDE1B [6] is over 6.00.
